Results on 2 molecules are retold here after patent US7553856B2, “Crystalline form of omeprazole” (Lek Pharmaceuticals d.d., priority 2001, dated 2009).

The nature of data set [1]: Stability testing of omeprazole samples under stress/accelerated aging, evaluated by absorbance (Ph Eur). The data set is classed as physicochemical. Particulars: omeprazole form C obtained by the disclosed process; no numerical data printed.
Experimental: The stability of omeprazole samples was determined by a standard procedure for testing the substances in pharmaceutical industry (CPMP/ICH/2736/99). […] Determination of absorbance, measured according to Ph Eur method (PhEur 3 Suppl 2000), is used as the criterion for evaluation of the sample quality during stability testing.
For data set [2] the following is noted: compared to previously-known omeprazole form B; cited from earlier work.

The structures appear in SMILES notation.

As to `COc1ccc2[nH]c([S+]([O-])Cc3ncc(C)c(OC)c3C)nc2c1` (stereo not shown) [omeprazole form C, 5-methoxy-2-[[(4-methoxy-3,5-dimethyl-2-pyridinyl)methyl]sulfinyl]-1H-benzimidazole], the “stability according to the standard protocol for characterization of stability of a pharmaceutical active substance” value in data set [1] was “stable according to the standard protocol”.

For the molecule `COc1ccc2[nH]c([S+]([O-])Cc3ncc(C)c(OC)c3C)nc2c1` (stereo not shown) [omeprazole form A, 5-methoxy-2-[[(4-methoxy-3,5-dimethyl-2-pyridinyl)methyl]sulfinyl]-1H-benzimidazole], in data set [2], the hygroscopicity result is “better”, the photostability result is recorded as “better” and the thermodynamic stability result is “better”.
